Each structure is given as a SMILES string. pIC50: −log10 of the molar value.

This is an account of results in ChEMBL document CHEMBL1145557, “Pyridine amides as potent and selective inhibitors of 11beta-hydroxysteroid dehydrogenase type 1” (Bioorg Med Chem Lett, 2008).

The nature of the assay: Inhibition of human 11-beta HSD in microsomes from HEK293 cells by SPA method.

As for `CC1CCN(C(=O)c2cccc(COc3c(Cl)cccc3Cl)n2)CC1`, the pIC50 (in general, the negative decadic logarithm of the IC50, by convention in mol/L) is 7.10. For `CC1CCN(C(=O)c2cccc(CSc3c(Cl)cccc3Cl)n2)CC1` the value was 8.14; for `O=C(c1cncc(CS(=O)(=O)c2c(Cl)cccc2Cl)c1)N1CCCCCC1`, 7.68. For the molecule `O=C(c1cncc(CS(=O)(=O)c2c(Cl)cccc2Cl)c1)N1CCCC1`, the pIC50 is 5.67.

Consider `O=C(c1cccc(-c2ccc(C(F)(F)F)cc2)n1)N1CCCC2CCCCC21` (stereo unspecified), for which the pIC50 was 8.44.

With `O=C(c1cccc(COc2c(Cl)cccc2Cl)n1)N1CCCC2CCCCC21` (stereo unspecified), the pIC50 was 8.34. For `CC1(C)C[C@H]2C[C@](C)(CN2C(=O)c2cncc(COc3c(Cl)cccc3Cl)c2)C1` the value was 8.77; for `CC1(C)CCCN(C(=O)c2cccc(-c3ccc(OC(F)(F)F)cc3)n2)C1`, 8.96.

As for `CC1CCN(C(=O)c2cccc(Oc3ccccc3Cl)n2)CC1`, the pIC50 was 6.55. For `CC1CCN(C(=O)c2cccc(Nc3ccccc3Cl)n2)CC1` the value was 6.42. For `CC1CCN(C(=O)c2ccc(CSc3ccc(Cl)cc3)cc2)CC1` the value was 6.63; for `CC1CCN(C(=O)c2ccnc(CS(=O)(=O)c3c(Cl)cccc3Cl)c2)CC1`, 6.97; for `CC1CCN(C(=O)c2cc(CS(=O)(=O)c3c(Cl)cccc3Cl)ccn2)CC1`, 6.50. Next, `CC1(C)CCCN(C(=O)c2cccc(-c3ccccc3Cl)n2)C1`: 8.54.

On to `CC1CCN(C(=O)c2cncc(CS(=O)(=O)c3c(Cl)cccc3Cl)c2)CC1`, for which the pIC50 is 7.66. For the molecule `CC1(C)CCCN(C(=O)c2cccc(COc3c(Cl)cc(Cl)cc3Cl)n2)C1`, the pIC50 is 8.19. Compared with the last molecule, the pIC50 is 0.53 log units higher. For `O=C(c1cccc(-c2ccccc2-c2ccccc2)n1)N1CCCC2CCCCC21` (stereo unspecified) the value was 8.33; for `O=C(c1cncc(COc2c(Cl)cccc2Cl)c1)N1CCCCC1c1cccnc1` (stereo unspecified), 8.70; for `O=C(c1cccc(-c2ccccc2[N+](=O)[O-])n1)N1CCCC2CCCCC21` (stereo unspecified), 8.70. `CC1(C)CCCN(C(=O)c2cccc(-c3ccc(Cl)cc3)n2)C1`: the pIC50 is 8.96. `CC1CCN(C(=O)c2cccc(Sc3ccccc3Cl)n2)CC1` had a pIC50 of 6.66. For `NC(=O)C1CCN(C(=O)c2cncc(CS(=O)(=O)c3c(Cl)cccc3Cl)c2)CC1` the value was 5.63; for `O=C(c1cncc(CS(=O)(=O)c2c(Cl)cccc2Cl)c1)N1CCOCC1`, less than 5.00. Next, `Cc1ccc(-c2cccc(C(=O)N3CCCC(C)(C)C3)n2)cc1F`: 10.00.

For the molecule `O=C(c1cncc(CS(=O)(=O)c2c(Cl)cccc2Cl)c1)N1CCCCC1`, the negative-log IC50 (pIC50) was 6.66.

Consider `CC1CCN(C(=O)c2ccc(CS(=O)(=O)c3c(Cl)cccc3Cl)cn2)CC1`, for which the pIC50 is 5.67. Against the preceding molecule, the pIC50 is 0.99 log units lower. Molecule `CC1CCN(C(=O)c2cccc(CS(=O)(=O)c3c(Cl)cccc3Cl)c2)CC1` gave a pIC50 of 7.89. For `O=C(c1cncc(CS(=O)(=O)c2c(Cl)cccc2Cl)c1)N1CCCCCCC1` the value was 7.96.

As for `O=C(c1cncc(CS(=O)(=O)c2c(Cl)cccc2Cl)c1)N1CCCCCCCC1`, the pIC50 is 8.60. Against the preceding molecule, the pIC50 is 0.64 log units higher. Next, `CC1CCN(C(=O)c2ccc(CS(=O)(=O)c3c(Cl)cccc3Cl)nc2)CC1`: 5.69. With `CC1CCN(C(=O)c2cccc(S(=O)(=O)c3ccccc3Cl)n2)CC1`, the negative-log IC50 (pIC50) was 5.33.
